Holding throughout (type): functional
The test system of test [1] is Rattus norvegicus. Put plainly: Antihypertensive activity in spontaneously hypertensive rat assessed as reduction in mean arterial blood pressure at 1.5 mg/kg, po measured after 6 hrs.
The test system of test [2] is Rattus norvegicus. Briefly: Antihypertensive activity in spontaneously hypertensive rat assessed as reduction in mean arterial blood pressure at 1.5 mg/kg, po measured after 12 hrs.
The test system of test [3] is Rattus norvegicus. Briefly: Antihypertensive activity in spontaneously hypertensive rat assessed as reduction in mean arterial blood pressure at 3 mg/kg, po measured after 6 hrs.
The test system of test [4] is Rattus norvegicus. Put plainly: Antihypertensive activity in spontaneously hypertensive rat assessed as reduction in mean arterial blood pressure at 3 mg/kg, po measured after 12 hrs.
In test [5] the test system is Rattus norvegicus. Briefly: Antihypertensive activity in spontaneously hypertensive rat assessed as reduction in mean arterial blood pressure at 3 mg/kg, po measured after 6 hrs relative to nifedipine. Set-up: scale not given: the % may be the effect or the level left.
Test [6] deals with Rattus norvegicus. Put plainly: Antihypertensive activity in spontaneously hypertensive rat assessed as reduction in mean arterial blood pressure at 1.5 mg/kg, po measured after 6 hrs relative to nifedipine. Set-up: scale not given: the % may be the effect or the level left.
The test system of test [7] is Rattus norvegicus. Briefly: Antihypertensive activity in spontaneously hypertensive rat assessed as reduction in mean arterial blood pressure at 1.5 mg/kg, po measured after 12 hrs relative to nifedipine. Set-up: scale not given: the % may be the effect or the level left.
Test [8] has as its system Rattus norvegicus. Put plainly: Antihypertensive activity in spontaneously hypertensive rat assessed as reduction in mean arterial blood pressure at 3 mg/kg, po measured after 12 hrs relative to nifedipine. Further details: scale not given: the % may be the effect or the level left.

SMILES strings stand for the structures.

As to `CCOC(=O)C1=C(C)N=C2NC(C)C(=O)N2C1c1cccc(C)c1` (centres undefined), the Activity in the test with Rattus norvegicus [1] is 5.5 mmHg; in the test on Rattus norvegicus [2] it was 11.51 mmHg; with Rattus norvegicus [3], 18 mmHg; with Rattus norvegicus [4], 24.65 mmHg; with Rattus norvegicus [5], 95.46%; in the test with Rattus norvegicus [6], 79.78%. Moreover, the results for the Activity with Rattus norvegicus [7] and with Rattus norvegicus [8] were 92.95% and 92.02%, respectively.
As for `CCOC(=O)C1=C(C)N=C2SC(C)C(=O)N2C1c1ccccc1O` (centres undefined), the Activity with Rattus norvegicus [1] was determined as 0.58 mmHg; in the test with Rattus norvegicus [2], 1.29 mmHg; with Rattus norvegicus [3] it was 4.47 mmHg; in the test on Rattus norvegicus [4] it was 9.18 mmHg.
With `CCOC(=O)C1=C(C)N=C2OC(C)C(=O)N2C1c1cccc([N+](=O)[O-])c1` (centres undefined), the Activity with Rattus norvegicus [1] worked out at 2.01 mmHg; with Rattus norvegicus [2], 4.1 mmHg; in the test with Rattus norvegicus [3] it was 8.19 mmHg; with Rattus norvegicus [4], 15.16 mmHg.
Turning to `CCOC(=O)C1=C(C)N=C2NC(C)C(=O)N2C1c1ccccc1` (centres undefined), the Activity in the test with Rattus norvegicus [1] was 5.96 mmHg; in the test with Rattus norvegicus [2], 12.39 mmHg; with Rattus norvegicus [3] it was 18.1 mmHg; in the test on Rattus norvegicus [4], 25.38 mmHg; in the test with Rattus norvegicus [5], 95.46%; with Rattus norvegicus [6], 79.78%. Further, the Activity is reported as 92.95% with Rattus norvegicus [7] and 92.02% with Rattus norvegicus [8].
In the case of `CCOC(=O)C1=C(C)N=C2OC(C)C(=O)N2C1c1ccc([N+](=O)[O-])cc1` (centres undefined), the Activity was 1.8 mmHg with Rattus norvegicus [1], 2.59 mmHg in the test with Rattus norvegicus [2], 7.22 mmHg in the test with Rattus norvegicus [3] and 12.97 mmHg in the test on Rattus norvegicus [4].
Regarding `CCOC(=O)C1=C(C)N=C2SC(C)C(=O)N2C1c1ccc(C)c(C)c1` (centres undefined), the Activity turned out to be 1.62 mmHg in the test with Rattus norvegicus [1], 2.2 mmHg with Rattus norvegicus [2], 5.76 mmHg with Rattus norvegicus [3] and 8.24 mmHg with Rattus norvegicus [4].
On the same counts, the results for `CCOC(=O)C1=C(C)N=C2SC(C)C(=O)N2C1c1cccc(Cl)c1` (centres undefined) are 1.16 mmHg, 1.41 mmHg, 5.37 mmHg and 7.2 mmHg.
The like results for `CCOC(=O)C1=C(C)N=C2OC(C)C(=O)N2C1c1ccccc1` (centres undefined) were, in that order, 1.12 mmHg, 1.82 mmHg, 6.04 mmHg and 10.9 mmHg.
The like results for `COC(=O)C1=C(C)NC(C)=C(C(=O)OC)C1c1ccccc1[N+](=O)[O-]` [NIFEDIPINE] were, in that order, 7.47 mmHg, 13.33 mmHg, 18.96 mmHg and 27.58 mmHg.

Source of the values: ChEMBL document CHEMBL4699566, “Pharmacophore modeling, design, and synthesis of potent antihypertensives, oxazolo/thiazolo-[3,2-a]-pyrimidin-3(2H)-one, and 1,5-dihydroimidazo-[1,2-a]-pyrimidin-3(2H)-one derivatives: A pilot trial” (2020).
